Reference: patent US20250042857A1, “SOS1 Inhibitor With Pyrido-Fused Six-Membered Ring Structure” (HAIHE BIOPHARMA CO., LTD., priority 2021, published 2025)
pIC50: −log10 of the molar value.

What was measured:
KRAS-G12C/SOS1 = KRAS-G12C/SOS1 (Homo sapiens (Human), UniProt Q07889); test: Detection of inhibitory effects of compounds on KRAS-G12C/SOS1 (KRASG12C/SOS binding kit, HTRF); conditions: Em665/620, read-out: IC50, inhibitory activity on interaction of KRAS-G12C/SOS1
Outline: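 HTRF binding of Tag2-KRAS-G12C to Tag1-SOS1 with compounds (10-point 3-fold dilution from 5,000 nM) for 15 min at room temperature, then anti-Tag1-Tb and anti-Tag2-XL665 for 120 min at 4° C. Em665/620 read; inhibition normalised to control wells, IC50 from variable-slope log(inhibitor) fit.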

p-ERK of PC-9 cells = test: p-ERK HTRF assay in PC-9 cells; format: cell-based; conditions: Homo sapiens, PC-9, 1 h, PC-9 lung cancer cells, 1 hour treatment, read-out: IC50, inhibitory activity on p-ERK of PC-9 cells
Outline: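 PC-9 lung cancer cells plated overnight, then exposed 1 h at 37 °C to a 10-point compound series (10,000–[…] nM final, 0.1% DMSO). After 1 h lysis, phospho-ERK1/2 (Thr202/Tyr204) measured by HTRF at 665/615 nm. Percent inhibition calculated from max and min signals.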

KRAS-G12C/SOS1, sequence (Q07889 whole entry, stated change not applied): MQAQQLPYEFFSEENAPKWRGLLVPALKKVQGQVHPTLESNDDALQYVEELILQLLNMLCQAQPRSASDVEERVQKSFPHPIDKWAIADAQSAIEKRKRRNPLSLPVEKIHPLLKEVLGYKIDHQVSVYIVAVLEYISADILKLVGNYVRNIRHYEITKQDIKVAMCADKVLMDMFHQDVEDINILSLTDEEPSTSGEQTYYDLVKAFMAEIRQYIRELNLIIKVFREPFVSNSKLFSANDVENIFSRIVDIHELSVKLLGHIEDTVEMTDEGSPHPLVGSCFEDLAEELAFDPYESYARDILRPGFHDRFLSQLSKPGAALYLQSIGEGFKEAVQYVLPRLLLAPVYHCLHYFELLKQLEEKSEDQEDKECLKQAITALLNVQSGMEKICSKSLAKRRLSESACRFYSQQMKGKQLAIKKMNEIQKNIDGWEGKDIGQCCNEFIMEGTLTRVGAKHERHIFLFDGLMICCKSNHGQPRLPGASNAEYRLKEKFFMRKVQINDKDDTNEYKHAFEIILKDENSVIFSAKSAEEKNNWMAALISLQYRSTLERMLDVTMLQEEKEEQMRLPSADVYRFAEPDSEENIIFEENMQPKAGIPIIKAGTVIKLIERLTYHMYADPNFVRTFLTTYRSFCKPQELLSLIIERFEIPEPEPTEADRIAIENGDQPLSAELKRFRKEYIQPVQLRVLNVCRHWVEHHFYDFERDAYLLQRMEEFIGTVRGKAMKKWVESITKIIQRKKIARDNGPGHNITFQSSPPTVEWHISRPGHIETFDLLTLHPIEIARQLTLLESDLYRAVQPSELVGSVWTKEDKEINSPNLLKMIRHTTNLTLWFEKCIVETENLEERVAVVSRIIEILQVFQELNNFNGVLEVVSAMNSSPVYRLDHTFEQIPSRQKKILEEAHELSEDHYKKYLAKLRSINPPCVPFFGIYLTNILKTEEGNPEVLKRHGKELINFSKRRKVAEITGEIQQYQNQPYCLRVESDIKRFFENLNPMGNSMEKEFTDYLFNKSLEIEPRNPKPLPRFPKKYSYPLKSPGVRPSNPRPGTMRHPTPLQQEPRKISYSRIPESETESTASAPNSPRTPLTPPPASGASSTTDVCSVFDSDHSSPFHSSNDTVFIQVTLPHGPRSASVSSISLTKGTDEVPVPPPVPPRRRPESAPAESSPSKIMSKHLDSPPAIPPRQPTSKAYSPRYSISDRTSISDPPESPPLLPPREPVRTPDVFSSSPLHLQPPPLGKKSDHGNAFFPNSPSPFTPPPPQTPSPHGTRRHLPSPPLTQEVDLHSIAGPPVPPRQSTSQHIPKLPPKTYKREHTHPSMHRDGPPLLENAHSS

Structure (SMILES)	pIC50 (KRAS-G12C/SOS1)	pIC50 (p-ERK of PC-9 cells)
C[C@H](O)C(=O)N1CCC(O)(c2cc3c(N[C@H](C)c4cccc(C(F)F)c4F)ccnc3c(-c3cnn(C)c3)n2)CC1 [Compound B-172]	6.30 to 7.00	6.00 to 6.52
COc1nc(C2(O)CCN(C(=O)[C@H](C)O)CC2)cc2c(N[C@H](C)c3cccc(C(F)F)c3F)ccnc12 [Compound B-174]	6.30 to 7.00	6.00 to 6.52
Cc1nc(C2(O)CCN(C(=O)CO)CC2)cc2c(N[C@H](C)c3cccc(C(F)F)c3F)ccnc12 [Compound B-175]	≥ 7.00	≥ 6.52
Cc1nc(C2(O)CCN(C(=O)[C@H](C)O)CC2)cc2c(N[C@H](C)c3cccc(C(F)F)c3F)ccnc12 [Compound B-176]	≥ 7.00	6.00 to 6.52

Continued, values first:

pIC50 (KRAS-G12C/SOS1)	pIC50 (p-ERK of PC-9 cells)	Structure (SMILES)
≥ 7.00	≥ 6.52	CC(=O)N1CCN(c2cc3c(N[C@H](C)c4cccc(C(F)F)c4F)ccnc3c(-c3cnn(C)c3)n2)CC1 [Compound B-169]
≥ 7.00	≥ 6.52	CC(=O)N1CCC(O)(c2cc3c(N[C@H](C)c4cccc(C(F)F)c4F)ccnc3c(-c3cnn(C)c3)n2)CC1 [Compound B-170]
≥ 7.00	≥ 6.52	C[C@@H](Nc1ccnc2c(-c3cnn(C)c3)nc(C3(O)CCN(C(=O)CO)CC3)cc12)c1cccc(C(F)F)c1F [Compound B-171]
≥ 7.00	≥ 6.52	COc1nc(C2(O)CCN(C(=O)CO)CC2)cc2c(N[C@H](C)c3cccc(C(F)F)c3F)ccnc12 [Compound B-173]
